US12077483B2, “Modified amine lipids” (Intellia Therapeutics, Inc., priority 2018, dated 2024)

Tests used:
rat TTR = test: In vivo editing in rat liver, LNP with Cas9 mRNA and sgRNA G534, NGS; settings: Table 11, Sprague Dawley female rats i.v., liver 6-7 days post dose
Method: In brief, to quantitatively determine the efficiency of editing at the target location in the genome, genomic DNA was isolated and deep sequencing was utilized to identify the presence of insertions and deletions introduced by gene editing.
PCR primers were designed around the target site (e.g., B2M), and the genomic area of interest was amplified. Additional PCR was performed according to the manufacturer's protocols (Illumina) to add the necessary chemistry for sequencing. The amplicons were sequenced on an Illumina MiSeq instrument. The reads were aligned to the relevant reference genome (e.g., GRCm38) after eliminating those having low quality scores. The resulting files containing the reads were mapped to the reference genome (BAM files), where reads that overlapped the target region of interest were selected and the number of wild type reads versus the number of reads which contain an insertion, substitution, or deletion was calculated.
The editing percentage (e.g., the “editing efficiency” or “percent editing”) is defined as the total number of sequence reads with insertions or deletions over the total number of sequence reads, including wild type.
To assess lipid efficacy, dose response experiments were performed in vivo. Cas9 mRNA of Example 115 was formulated as LNPs with a gRNA targeting TTR (G00534; SEQ ID NO: 5). These LNPs were formulated, prepared and analyzed as described in Example 115 using a 1:2 w/w ratio of a sgRNA and Cas9 mRNA. Composition analysis for these LNPs are described in Table 10.
(§1) For efficacy, Sprague Dawley female rats were dosed i.v. at 0.1 mpk or 0.03 mpk. 6-7 days post dose, rats were euthanized by CO2 asphyxiation. Blood was collected into serum separator tubes. Liver biopsy processed for gDNA and assessed for editing by NGS methods described in Example 115. Results are shown in Table 11 and FIGS. 12A and 12B. For tolerability, Sprague Dawley female rats were dosed at 6 mpk and 24 hours post dose the animals were euthanized by CO2 asphyxiation. Blood was collected into serum separator tubes and sent to an external CRO for quantitation of liver enzymes via a liver enzyme panel.

[1] = Tolerability in rats: liver enzyme panel 24 hours post dose; format: in vivo, rat; settings: Sprague Dawley female rats, 6 mg/kg, serum
Method: as §1

Row | Compound | Editing % Editing (rat TTR; dose 0.03 mpk) [%] | Editing % Editing (rat TTR; dose 0.1 mpk) [%] | ALP (U/L) [1] [U/L] | ALT (U/L) [1] [U/L] | AST (U/L) [1] [U/L] | Creatine kinase (U/L) [1] [U/L] | GGT (U/L) [1] [U/L] | Total Bilirubin [1] [mg/dL]
1 | CCCCC/C=C\C/C=C\CCCCCCCC(=O)OCC(COC(=O)CCCCCCC/C=C\C/C=C\CCCCC)OC(=O)CCC(CCCCCC)OC(=O)OCCCN1CCCC1 (centres unmarked) [Compound 45, 2-((4-(((3-(pyrrolidin-1-yl)propoxy)carbonyl)oxy)decanoyl)oxy)propane-1,3-diyl (9Z,9′Z,12Z,12′Z)-bis(octadeca-9,12-dienoate)] | 10.76 | 48.16 | 439.8 | 163.2 | 681 | 1103 | 2.4 | 0.3
2 | CCCCC/C=C\C/C=C\CCCCCCCC(=O)OCC(COC(=O)CCCCCCC/C=C\C/C=C\CCCCC)OC(=O)CCC(CCCCCC)OC(=O)NCCN1CCCC1 (racemic) [Compound 50, 2-((4-(((2-(pyrrolidin-1-yl)ethyl)carbamoyl)oxy)decanoyl)oxy)propane-1,3-diyl (9Z,9′Z,12Z,12′Z)-bis(octadeca-9,12-dienoate)] | 26.9 | 62.6 | 508.6 | 250.8 | 820.8 | 272 | 11 | 0.4
3 | CCCCC/C=C\C/C=C\CCCCCCCC(=O)OCC(COC(=O)CCCCCCC/C=C\C/C=C\CCCCC)OC(=O)CCC(CCCCCCCC)OC(=O)NCCN(C)CC (centres unmarked) [Compound 34, 2-((4-(((2-(ethyl(methyl)amino)ethyl)carbamoyl)oxy)dodecanoyl)oxy)propane-1,3-diyl (9Z,9′Z,12Z,12′Z)-bis(octadeca-9,12-dienoate)] | 21.22 | 53.9 | 542 | 179.6 | 349.6 | 184.8 | 3.4 | 0.2
4 | CCCCC/C=C\C/C=C\CCCCCCCC(=O)OCC(COC(=O)CCC(OCCCCCCCC)OCCCCCCCC)COC(=O)OCCCN(CC)CC (centres unmarked) [Compound 49, 3-((4,4-bis(octyloxy)butanoyl)oxy)-2-((((3-(diethylamino)propoxy)carbonyl)oxy)methyl)propyl (9Z,12Z)-octadeca-9,12-dienoate, reference compound] | 4.76 | 25.62 | 784.3 | 408.5 | 534.8 | 157.5 | 2 | 0.6
